Assay: Human HepG2 cell viability assay in 384 well format
Type: toxicity, cell-based
Set-up: dose 125 nL, time 70.5 hour; concentration not given beside the values
Conditions: HepG2 cells, read-out: Inhibition

SMILES | cytotoxicity at 70.5 h
CCc1nc(CC(=O)N2CCn3c(CC)nnc3C2)cs1 | -2.3%
Cc1nn(C)c(N2CCOCC2)c1CNC1CCc2cc(F)ccc21 (stereo not drawn) | -19.2%
Cc1csc(C2CCCN(C(=O)c3cnn4ccc(C)nc34)C2)n1 (stereo not drawn) | -8.34%
O=C(c1cn(-c2cccc(Cl)c2F)nn1)N1CCCSCC1 | -13.2%
CC(C)c1n[nH]c(C2CN(Cc3ncc[nH]3)CCO2)n1 (stereo not drawn) | 35.2%
c1cnc(N2CC[C@@H]3[C@@H]2CCN3Cc2cccs2)nc1 | -4.98%
Cc1nnc(-c2cccc(C#N)c2)n1C1CCN(C(C)C)C1=O (stereo not drawn) | -11.3%
CN(C)c1nccc(-c2cnc(N(C)C)[nH]c2=O)n1 | -5.37%
COc1coc(CN2CCCC(CCc3ccccc3F)C2)cc1=O (stereo not drawn) | 16.9%
c1cnn(C2CN(Cc3nc(-c4ccsc4)no3)C2)c1 | -11.9%
CC(C)Oc1cccc(C(=O)C2CCCN(C(=O)c3ncn[nH]3)C2)c1 (stereo not drawn) | -9.49%
CCn1c(C)nnc1SCCn1cc(-c2ncc[nH]2)nn1 | -5.72%
CC(NCc1nnc2n1CCCC2)c1nc(Cc2ccccc2)no1 (stereo not drawn) | -8.89%
O=C(Nc1cnn(-c2ccccc2Cl)c1)NC1CCC(O)CC1 (stereo not drawn) | 23.9%
COc1cc(CNCc2ccc(NC(=O)NC(C)C)cc2)cc(OC)c1 | 2.03%
OCC(O)CSCc1ccc(F)cc1Cl (stereo not drawn) | 19.6%
O=C(COC1CCCCC1)Nc1ccn(CCc2ccncc2)n1 | -7.83%
NC(=O)NCC1CCCCN1C(=O)c1cccc(C(F)(F)F)c1 (stereo not drawn) | -3.78%
CC(=O)N1CCN(CCNS(=O)(=O)c2ccc(F)c(F)c2)CC1 | 2.27%
CC(C)c1nc(C2CCCN(C(=O)c3ccc4c(c3)COC4)C2)no1 (stereo not drawn) | 0.421%
CCN(Cc1csc(C)n1)c1cccc(CO)c1 | -3.7%
CC(O)CN1CCC(CNCc2cn(-c3ccccc3)nn2)CC1 (stereo not drawn) | -9.21%
Cc1ccc(C(=O)NS(=O)(=O)c2ccccc2Br)c(=O)[nH]1 | -7.74%

SMILES | cytotoxicity at 70.5 h
Cc1nc(C2CCN(C(=O)c3ccc(=O)n(C)c3)CC2)c2sccn12 | 2.35%
O=C(C[S+]([O-])c1ccc(F)c(F)c1)NCc1cc(F)cc(F)c1 (stereo not drawn) | -2.62%
NC(=O)C1CCCN1Cc1nccn1CC(F)(F)F (stereo not drawn) | 10.6%
O=C(CCn1cncn1)N1CC[C@@H](c2ccc3ccccc3c2)[C@H](O)C1 | -10.5%
Cc1nn(C)cc1-c1cc(C(=O)N2CCc3ncc(Cl)cc3C2)on1 | -2.35%
CCNC(=O)NC[C@H]1C[C@@H]2CCN1C[C@@H]2c1cc(-c2cccs2)nn1C | -3.63%
Cc1cc(CN2C[C@@H]3COC[C@@H](C(=O)N4CCCCO4)[C@@H]3C2)oc1C | -6.96%
CCC(NC(=O)C1CCN(C(C)C)CC1)c1cn2cccnc2n1 (stereo not drawn) | -2.43%
CC1CCCN(C(=O)Nc2ccc(F)c(C(N)=O)c2)C1 (stereo not drawn) | -1.11%
Cc1cccc(C(=O)NCc2ccccc2)n1 | -15.5%
CN(Cc1nnc(C2CC2)o1)C1CCN(CCCc2cnn(C)c2)C1 (stereo not drawn) | 6.71%
COc1ccccc1CCC(=O)N1CCCC(OCc2cccnc2)C1 (stereo not drawn) | 26.8%
CNC(=O)[C@@H]1C[C@@H](n2cc(-c3ccc(CN4CC=CC4)cc3)nn2)CN1 | -9.45%
CC(C)c1noc(C(C)N2CCN(CCc3ccncc3)CC2)n1 (stereo not drawn) | -16.3%
CCn1nc2c(cc1=O)CN(CCOc1cccc(C#N)c1)CC2 | -3.93%
Brc1ccc(NCc2ccc(Cn3ccnc3)cc2)nc1 | 43.7%
CN(C)c1ccc(C(=O)Nc2ccn(CCc3ccncc3)n2)cn1 | 0.589%
O=C(NCCCn1ccccc1=O)c1cnc(-c2ccsc2)s1 | -11.3%
O=C1CCCN1CCc1noc(-c2ccc3[nH]cnc3c2)n1 | -8.29%
O=C(C1CC1)N1CC[C@H]2C(=O)N(c3ccsc3)CCO[C@H]2C1 | -11.7%
COc1ccc2c(ccn2CCC(=O)Nc2nc[nH]n2)c1 | 0.0223%
Cc1cc(NC2CCc3nc(C)nn3C2)n2ncnc2n1 (stereo not drawn) | -98.6%
CN(CCc1ccccc1)c1cnn(CC2COCCO2)c(=O)c1 (stereo not drawn) | -4.1%

SMILES | cytotoxicity at 70.5 h
CC(C)CN1CCC(NCCNc2cccnc2)CC1 | -17.2%
CN(C(=O)Cn1nc(-c2ccc(F)cc2)oc1=O)C1CCS(=O)(=O)C1 (stereo not drawn) | 12.8%
O=C(NC[C@@H]1CCCO1)c1cccnc1N1CCCC1c1ccccn1 (stereo partly drawn) | -3.08%
CNC(=O)[C@H]1C[C@H]2OCC[C@H]2N(CCOc2ccc(Cl)cc2)C1 | -1.59%
CC(C)C(=O)N1CC[C@H]2N(C)CC[C@@]2(C(=O)N2CCOCC2)CC1 | 2.86%
O=S(=O)(c1cccs1)N1CCCC(c2nccs2)C1 (stereo not drawn) | -3.29%
CN(C)S(=O)(=O)N1CCCC(c2nccnc2-c2cccc(Cl)c2)C1 (stereo not drawn) | -1.8%
CCN1CCOC(CNc2nccc(C(F)(F)F)n2)C1 (stereo not drawn) | -6.79%
CCc1nc(CN(C)C(=O)CSC)no1 | -11.3%
Cc1cnn(C2CCCN(C(=O)c3cccc(-n4cnnn4)c3)C2)c1 (stereo not drawn) | -3.6%
Cc1cccc(NC2CCN(C(=O)Nc3cccc4[nH]ccc34)CC2)n1 | -8.86%
CNC(=O)N1CCC(NC(=O)c2cnn(C)c2)CC1 | -11.2%
Cc1noc([C@@H]2C[C@H]3CN(Cc4ccc5c(c4)OCO5)C[C@H]3O2)n1 | -16.8%
O=C(NCc1cn2c(n1)CN(Cc1ccccn1)CC2)C1CCC1 | -10%
O=C(Nc1cc(-c2cccnc2)no1)C1CCC1 | -13%
O=c1c(NCCc2ccc(O)cc2)c(NCc2ccco2)c1=O | -4.28%
O=C(NCCN1CCOCC1)c1cc(-c2ccccc2Cl)[nH]n1 | 1.45%
CCOC(=O)[C@H]1[C@@H](O)C(=O)N(C)C12CCN(S(=O)(=O)CC)CC2 | -10.3%
O=C(c1ccncc1)N1CCCN(Cc2nnc(C3CC3)o2)CC1 | -2.96%
CCc1c(C)sc(NC(=O)CN2CCOCC2)c1C(=O)OC | -6.67%
CS(=O)(=O)CCn1ccc(NCc2ccc(C#N)cc2)n1 | -0.713%
CCCC(O)CN1CC(C)(C)CN(C(=O)c2ccc(SC)cc2)CC1=O (stereo not drawn) | -8.02%
Cc1nn(C)c(C)c1NC(=O)CNC(c1ccccc1)C1CCC1 (stereo not drawn) | -4.47%

SMILES | cytotoxicity at 70.5 h
Cn1ncnc1-c1ccnc(NCc2ccccn2)n1 | 9.26%
CCn1nc(CC(C)C)cc1C(=O)N1CCCC(C#N)C1 (stereo not drawn) | 0.732%
CCn1cc(CN2CCCN(C(=O)c3cccc(C#N)c3)CC2)cn1 | -3.9%
O=C(c1cc[nH]n1)N1CCCC(c2cc(C(F)(F)F)[nH]n2)C1 (stereo not drawn) | -17.8%
CCOc1ncccc1C(=O)N1CCN(C)C2(CCN(C)CC2)C1 | 4.53%
CCCNC(=O)C(C)Nc1ccc(OCC)cc1 (stereo not drawn) [PROPETAMIDE] | -8.27%
CC(C)[C@H](N)CC(=O)Nc1nc(-c2cnc(N3CCOCC3)nc2)cs1 | -1.39%
CC(C)c1ncc(CN2CCCC2c2[nH]ncc2C(=O)N(C)C)cn1 (stereo not drawn) | -5.06%
CCn1c(CC2CCN(C(=O)c3cc(C(C)C)nn3C)CC2)n[nH]c1=O | 2.37%
O=S(=O)(C1CC1)N1CCc2ncc(Cn3cncn3)n2CC1 | -3.06%
CCCN1CCC2(Cc3ccccc3NC2=O)C1 (stereo not drawn) | -0.983%
CCOCC1c2c(cnn2CC2CC2)CCN1Cc1nccs1 (stereo not drawn) | -9.55%
c1cncc(-c2ncnc3c2CCN(Cc2cccs2)CC3)c1 | 16.4%
CN1CCN(C)C2(CCN(C(=O)CC(F)(F)F)CC2)C1=O | 0.213%
CCN1CCCC(O)(c2nc(C)c(CCOc3ccc(F)cc3)s2)CC1 (stereo not drawn) | 13.4%
Cc1nnc2n1CCN(C(=O)COCCOc1ccccc1)C2 | -1.96%
CN(Cc1ccncc1)Cc1nccn1Cc1ccccc1 | -5.12%
Cc1ccc(N2CCCC3(CCCC(=O)N3)C2)nn1 (stereo not drawn) | -5.66%
CC(NCc1cnc(C2CCC2)s1)c1cccc(-n2ccnc2)c1 (stereo not drawn) | -5.22%
CS(=O)(=O)N1CCO[C@@H]2CN(C(=O)N3CCCC3)CC[C@@H]2C1 | -8.13%
COCCN(Cc1sccc1C)C(=O)C1CCCN(C(N)=O)C1 (stereo not drawn) | 9.09%
CC1=N[C@@]2(CC[C@@H]3CN(C(=O)NCc4ccccc4C)C[C@@H]32)C(=O)N1 | 7.73%
COC(=O)c1cccc2nc([C@H]3CCN(Cc4ccccc4C)C3)oc12 | -14.2%

SMILES | cytotoxicity at 70.5 h
COc1ccc(OC)c(C2CCN(CC(C)(C)N3CCOCC3)C2)c1 (stereo not drawn) | -4.45%
Cc1nn(CC(C)C)cc1S(=O)(=O)N(C)Cc1nonc1C | 0.131%
CCc1noc(CS(=O)(=O)CC=C(C)C)n1 | -9.04%
CNC(=O)NC(=O)COc1c(C(C)=O)ccc(Cl)c1Cl | -9.38%
CNC(=O)c1sc2ncccc2c1C1CCN(C(=O)CCOC)C1 (stereo not drawn) | -8.16%
CCOCC1c2c(cnn2CC2CC2)CCN1C(=O)c1ccncn1 (stereo not drawn) | 20.9%
CCN(Cc1ccc(S(C)(=O)=O)cc1)Cc1nc(COC)no1 | -11.1%
O=C(Nc1cccnc1-n1cc(Br)cn1)C1CCCC1 | -25.7%
CC(C)c1ccc(-n2nnc(C(=O)O)c2-c2ccccn2)cc1 | -24.1%
CC(C)NC(=O)Nc1ccc(CS(=O)(=O)C(C)(C)C)cc1 | -12.3%
CCc1cnc(CNC(=O)NCCCO)s1 | -3.22%
CCC1CN(Cc2ccccc2)CCN1Cc1nnc(C2CCC2)o1 (stereo not drawn) | -0.161%
COc1ccc(-c2ccccc2CN)c(OC)c1 | 21.8%
CC(C)COC(=O)N1CC(=O)N(CCc2ccccc2)CC(O)C1 (stereo not drawn) | 25.4%
COCC1CC2(CCN(C(=O)c3ccc(OC)c(Cl)c3)CC2)CO1 (stereo not drawn) | -8.41%
O=C1CCNc2ccccc2CN1Cc1ccco1 | -6.23%
CC(=O)NCCNC(=O)c1cnc(C(C)(C)C)s1 | -8.27%
Cn1cc(-c2cccc(CNC(=O)N3CCC[C@@H]3CO)c2)cn1 | -4.94%
CCN1CCN(C)C2(CCN(Cc3ccc(C)o3)CC2)C1=O | -7.08%
CCn1c(C2CCN(C(=O)COCC(F)(F)C(F)F)CC2)n[nH]c1=O | -6.79%
Cn1cc(CNC(=O)Nc2ccc(S(=O)(=O)C(F)F)cc2)cn1 | 0.531%

Source: ChEMBL document CHEMBL3507680, “University of Dundee, Gates Library screen for HepG2 cell viability”
